Data from patent US20240327356A1, “PYRIMIDINE BASED RAS MODULATORS AND USES THEREOF” (QUANTA THERAPEUTICS, INC., priority 2021, published 2024).

system: Phospho-ERK (Thr202/Tyr204) in MiaPaCa-2 cells; test: pERK inhibition in MiaPaca-2 cell line (HTRF); assay type: cell-based; settings: Homo sapiens, MIA PaCa-2, 1 hour incubation with compound
Method: MiaPaCa-2 cells (ATCC CRL-1420) were cultured in high glucose DMEM (Gibco 11965092) containing 10% fetal bovine serum (Gibco 1993708) and 1× Penicillin/Streptomycin, at 37° C. in a humid atmosphere of 5% CO2 in the air. Cells were plated in tissue-culture treated 96-well plates at a density of 10,000 cells/well and allowed to attach for 16 hours. The medium was then removed, and diluted compounds were added in a final concentration of 0.5% DMSO. After 1 hour of incubation, cells were lysed by the lysis buffer supplied with the Phospho-ERK (Thr202/Tyr204) cellular HTRF kit (Cisbio 64ERKPEH) and transferred to a 384-well low-volume white plate (PerkinElmer 6008280). The cell lysates were treated with the detection reagents supplied with the HTRF kit for 4 hours at ambient temperature in darkness. Two fluorescence intensities at the wavelengths (665 and 620 nm) were measured by the Envision plate reader (Perkin Elmer), and the data were processed and fitted to a 4-parameter logistic model for IC50 calculation (GraphPad Prism 9).

| IC50 | Structure (SMILES) |
| --- | --- |
| 1 to 10 µM | N#CC1(C(=O)NCc2cnc(-c3ccc(C(F)(F)F)cc3F)nc2N2CCC(CN)C2)CC1 (stereo not drawn) [Compound 28] |
| 1 to 10 µM | Cc1ccc(-c2ncc(CN3CCN(C)C3=O)c(N3CCC(CN)C3)n2)cc1Cl (stereo not drawn) [Compound 120] |
| 1 to 10 µM | N#Cc1cc(-c2ncc(CNC(=O)C3(F)CC3)c(N3CCC(CN)C3)n2)ccc1Cl (stereo not drawn) [Compound 35] |
| 1 to 10 µM | C=C(C)C(=O)NCc1cnc(-c2ccc(C)c(Cl)c2)nc1N1CCC(CN)C1 (stereo not drawn) [Compound 88] |
| 1 to 10 µM | NC[C@@H]1CCCN1c1nc(-c2ccc(Cl)c(C(F)(F)F)c2)ncc1C1=CCNC1 [Compound 31] |
| 1 to 10 µM | N#CC1(C(=O)NCc2cnc(-c3ccc(Cl)c(C(F)(F)F)c3)nc2N2CCC(F)(CN)C2)CC1 (stereo not drawn) [Compound 47] |
| 1 to 10 µM | N#CC1(C(=O)NCc2cnc(-c3ccc4c(c3)CC4)nc2N2CCC(CN)C2)CC1 (stereo not drawn) [Compound 117] |
| 1 to 10 µM | NCC1CCN(c2nc(-c3ccc(Cl)c(C(F)(F)F)c3)ncc2OC2CNC2)C1 (stereo not drawn) [Compound 13] |
| 1 to 10 µM | N#Cc1cc(-c2ncc(C3=CCNC3)c(N3CCC(CN)C3)n2)ccc1Cl (stereo not drawn) [Compound 22] |
| 1 to 10 µM | NCC1CCN(c2nc(-c3ccc(Cl)c(C(F)(F)F)c3)ncc2OC2CCNC2)C1 (stereo not drawn) [Compound 15] |
| 10 to 50 µM | N#CC1(C(=O)NCc2cnc(-c3ccc4ccccc4c3)nc2N2CCC(CN)C2)CC1 (stereo not drawn) [Compound 64] |
| 1 to 10 µM | NCC1CCN(c2nc(-c3ccc(Cl)cc3F)ncc2C2=CCNC2)C1 (stereo not drawn) [Compound 11] |
| 1 to 10 µM | Cc1ccc(-c2ncc(CNC(=O)C3(C#N)CC3)c(N3CCN(C)CC3)n2)cc1Cl [Compound 115] |
| 10 to 50 µM | N#CC1(C(=O)NCc2cnc(-c3ccc(Cl)cc3F)nc2N2CCC(CN)C2)CC1 (stereo not drawn) [Compound 24] |
| 1 to 10 µM | Cc1ccc(-c2ncc(NS(=O)(=O)C3CC3)c(N3CCC(CN)C3)n2)cc1Cl (stereo not drawn) [Compound 111] |
| 10 to 50 µM | CCOC(=O)NCc1cnc(-c2ccc(C(F)(F)F)cc2F)nc1N1CCC(CN)C1 (stereo not drawn) [Compound 21, ethyl N-[[4-[3-(aminomethyl)pyrrolidin-1-yl]-2-[2-fluoro-4-(trifluoromethyl)phenyl]pyrimidin-5-yl]methyl]carbamate] |
| 10 to 50 µM | Cc1ccc(-c2ncc(CNC(=O)C3(F)CC3)c(CN3CCN(C)CC3)n2)cc1Cl [Compound 128, N-[[2-(3-chloro-4-methyl-phenyl)-4-[(4-methylpiperazin-1-yl)methyl]pyrimidin-5-yl]methyl]-1-fluoro-cyclopropanecarboxamide] |
| 1 to 10 µM | Cc1ccc(-c2ncc(OCC(=O)N(C)C)c(N3CCC(CN)C3)n2)cc1Cl (stereo not drawn) [Compound 127] |
| 1 to 10 µM | NCC1CCN(c2nc(-c3ccc(Cl)c(C(F)(F)F)c3)ncc2OC2COC2)C1 (stereo not drawn) [Compound 16] |
| 10 to 50 µM | Cc1ccc(-c2ncc(CNC(=O)C3(F)CC3)c(O[C@@H]3CNC[C@@H]3O)n2)cc1Cl (racemic) [Compound 100] |
| 1 to 10 µM | Cc1ccc(-c2ncc(NC(=O)c3ccccc3)c(N3CCC(CN)C3)n2)cc1Cl (stereo not drawn) [Compound 114] |
| 1 to 10 µM | NCCOc1cnc(-c2ccc(Cl)c(C(F)(F)F)c2)nc1N1CC[C@@H](CN)C1 [Compound 3, (S)-2-((4-(3-(aminomethyl)pyrrolidin-1-yl)-2-(4-chloro-3-(trifluoromethyl)phenyl)pyrimidin-5-yl)oxy)ethan-1-amine] |
| 1 to 10 µM | NCC1CCN(c2nc(-c3ccc(C(F)(F)F)cc3F)ncc2C2=CCNC2)C1 (stereo not drawn) [Compound 8] |

target: KRAS^G12D-FMe.RAF1^RBDCRD complex (Homo sapiens, UniProt P01116, G12D); test: SHG assay: binding to bilayer-tethered KRAS G12D/RAF1 complex; settings: GppNHp-loaded complex on PS bilayer; compound 0.027-40 μM, monitored over 60 min
Method: Compounds suspected to carry intrinsic SHG activity were tested in the presence of an unlabeled KRAS^G12D-FMe.RAF1^RBDCRD complex to monitor binding. PS bilayer was prepared from PS-enriched small unilamellar vesicles (SUVs) purchased from Biodesy, Inc. The concentrated SUVs were diluted in TBS buffer containing 5 mM CaCl2 and incubated on a glass-bottom 384-well Biodesy Delta™ assay plate to allow bilayer formation. Equimolar amounts of GppNHp-loaded KRAS^G12D-FMe and RAF1^RBDCRD were mixed and incubated together on PS bilayer overnight at 4° C. The following day, untethered protein was removed by washing with assay buffer (20 mM Hepes, pH 7.4, […], 1 mM TCEP, 5 μM GppNHp). The SHG signal produced by bilayer-tethered complex was ready using the Biodesy Delta™ platform where each well was pulsed with an 800 nm laser and the resulting second harmonic signal intensity at 400 nm was collected. Compounds were diluted into the same assay buffer and applied to the complex at a final concentration range spanning 0.027 μM-40 μM and the SHG intensity of each well was monitored at 5 minute intervals over a 60 minute time period.

| EC50 | Structure (SMILES) |
| --- | --- |
| 10 to 50 µM | N#CC1(C(=O)NCc2cnc(-c3ccc(C(F)(F)F)cc3F)nc2N2CCC(CN)C2)CC1 (stereo not drawn) [Compound 28] |
| 10 to 50 µM | Cc1ccc(-c2ncc(CN3CCN(C)C3=O)c(N3CCC(CN)C3)n2)cc1Cl (stereo not drawn) [Compound 120] |
| 10 to 50 µM | N#Cc1cc(-c2ncc(CNC(=O)C3(F)CC3)c(N3CCC(CN)C3)n2)ccc1Cl (stereo not drawn) [Compound 35] |
| 1 to 10 µM | C=C(C)C(=O)NCc1cnc(-c2ccc(C)c(Cl)c2)nc1N1CCC(CN)C1 (stereo not drawn) [Compound 88] |
| < 0.1 µM | NC[C@@H]1CCCN1c1nc(-c2ccc(Cl)c(C(F)(F)F)c2)ncc1C1=CCNC1 [Compound 31] |
| 1 to 10 µM | N#CC1(C(=O)NCc2cnc(-c3ccc(Cl)c(C(F)(F)F)c3)nc2N2CCC(F)(CN)C2)CC1 (stereo not drawn) [Compound 47] |
| 1 to 10 µM | CN(C)CC1CCN(c2nc(-c3ccc(Cc4ccccc4)c(Cl)c3)ncc2CNC(=O)C2(C#N)CC2)C1 (stereo not drawn) [Compound 150] |
| 1 to 10 µM | C#CC1(C(=O)NCc2cnc(-c3ccc(Cl)c(C(F)(F)F)c3)nc2N2CCC(CN)C2)CC1 (stereo not drawn) [Compound 145] |
| 1 to 10 µM | Cc1c(F)cc(-c2ncc(CNC(=O)C3(C#N)CC3)c(N3CCC(CN)C3)n2)cc1[N+](=O)[O-] (stereo not drawn) [Compound 140] |
| 1 to 10 µM | CN(C)CC1CCN(c2nc(-c3cc(Cl)cc(Cc4ccccc4)c3)ncc2CNC(=O)C2(C#N)CC2)C1 (stereo not drawn) [Compound 148] |
| 1 to 10 µM | Cc1ccc(-c2ncc(OCC(=O)Nc3ccccc3)c(N3CCC(CN)C3)n2)cc1Cl (stereo not drawn) [Compound 131] |
| 1 to 10 µM | CN(C)CC1CCN(c2nc(-c3cc(Cl)cc(C(F)c4ccccc4)c3)ncc2CNC(=O)C2(C#N)CC2)C1 (stereo not drawn) [Compound 149] |
| 1 to 10 µM | Cc1ccc(-c2ncc(CNC(=O)C3Cc4ccccc4O3)c(N3CCC(CN)C3)n2)cc1Cl (stereo not drawn) [Compound 135] |
| 1 to 10 µM | CN(C)CC1CCN(c2nc(-c3cc(Cl)cc(C#Cc4ccccc4)c3)ncc2CNC(=O)C2(C#N)CC2)C1 (stereo not drawn) [Compound 143] |
| 1 to 10 µM | Cc1c(Cl)cc(-c2ncc(CNC(=O)C3(C#N)CC3)c(N3CCC(CN)C3)n2)cc1Cl (stereo not drawn) [Compound 139] |
| 1 to 10 µM | N#CC1(C(=O)NCc2cnc(-c3cc(F)c(C(F)(F)F)c(F)c3)nc2N2CCC(CN)C2)CC1 (stereo not drawn) [Compound 137] |

| EC50 | Structure (SMILES) |
| --- | --- |
| 1 to 10 µM | Cc1ccc(-c2ncc(CNCC3CC3)c(N3CCC(CN)C3)n2)cc1Cl (stereo not drawn) [Compound 132] |
| 1 to 10 µM | CN(C)CC1CCN(c2nc(-c3cc(Cl)cc(-c4ccccc4)c3)ncc2CNC(=O)C2(C#N)CC2)C1 (stereo not drawn) [Compound 142] |
| 10 to 50 µM | CN1CC(Oc2nc(-c3ccc(Cl)c(C(F)(F)F)c3)ncc2CNC(=O)C2(C#N)CC2)C1 [Compound 78] |
| 1 to 10 µM | CS(=O)(=O)NCc1cnc(-c2ccc(Cl)c(C(F)(F)F)c2)nc1N1CCC(CN)C1 (stereo not drawn) [Compound 6, N-[[4-[3-(aminomethyl)pyrrolidin-1-yl]-2-[4-chloro-3-(trifluoromethyl)phenyl]pyrimidin-5-yl]methyl]methanesulfonamide] |
| 1 to 10 µM | Cc1ccc(-c2ncc(CNC(=O)C3(C#N)CC3)c(N3CCC(CN(C)C)C3)n2)cc1Cl (stereo not drawn) [Compound 129] |
| 1 to 10 µM | Cc1ccc(-c2ncc(CNC(=O)C3CN(C)C3)c(N3CCC(CN)C3)n2)cc1Cl (stereo not drawn) [Compound 86] |
| 10 to 50 µM | C#Cc1cc(-c2ncc(CNC(=O)C3(C#N)CC3)c(N3CCC(CN(C)C)C3)n2)cc(F)c1C (stereo not drawn) [Compound 147, 1-cyano-N-[[4-[3-[(dimethylamino)methyl]pyrrolidin-1-yl]-2-(3-ethynyl-5-fluoro-4-methyl-phenyl)pyrimidin-5-yl]methyl]cyclopropanecarboxamide] |
| 1 to 10 µM | NCc1cnc(-c2ccc(Cl)c(C(F)(F)F)c2)nc1N1CCC(CN)C1 (stereo not drawn) [Compound 4] |
| 1 to 10 µM | Cc1ccc(-c2ncc(CNC(=O)C3CNC3)c(N3CCC(CN)C3)n2)cc1Cl (stereo not drawn) [Compound 85] |
| 1 to 10 µM | CN(C)CC1CCN(c2nc(-c3cc(Cl)cc(/C=C/c4ccccc4)c3)ncc2CNC(=O)C2(C#N)CC2)C1 (stereo not drawn) [Compound 144] |
| 1 to 10 µM | Cc1ccc(-c2ncc(CNC(=O)C(F)(F)c3ccccc3)c(N3CCC(CN)C3)n2)cc1Cl (stereo not drawn) [Compound 134] |
| 1 to 10 µM | Cc1ccc(-c2ncc(CNc3ccccc3)c(N3CCC(CN)C3)n2)cc1Cl (stereo not drawn) [Compound 130] |
| 1 to 10 µM | Cc1ccc(-c2ncc(CNC(=O)C(F)c3ccccc3)c(N3CCC(CN)C3)n2)cc1Cl (stereo not drawn) [Compound 133] |
| 10 to 50 µM | CN1CCC(Oc2nc(-c3ccc(Cl)c(C(F)(F)F)c3)ncc2CNC(=O)C2(C#N)CC2)C1 (stereo not drawn) [Compound 79] |
| 1 to 10 µM | N#CC1(C(=O)NCc2cnc(-c3ccc(Cl)c(OC(F)(F)F)c3)nc2N2CCC(CN)C2)CC1 (stereo not drawn) [Compound 141] |
